“Also recorded” adds a separate entry of the source.
Legend:
[1] = test system: Escherichia coli; experiment: Growth of other bacteria and fungi; assay type: cell-based
[2] = test system: Acinetobacter baumanii; experiment: Growth of other bacteria and fungi; assay type: cell-based
[3] = test system: mice with Pseudomonas aeruginosa-induced gut-derived sepsis; experiment: Pseudomonas aeruginosa-induced gut-derived sepsis in mice; assay type: in vivo, female Balb/c mice; conditions: 15 mg/kg i.p for 4 days, s.c. for 1 day; all vehicle animals dead; listed as AMP peptide
Description: To determine if AMP peptide could play a cytoprotective role in GDS, a study was carried out in C2 cell monolayers that were exposed to the PA-I lectin. […] Next the effect of AMP peptide was studied in the mouse model of P. aeruginosa-induced-GDS (Laughlin et al., 2000) using female Balb/c mice subjected to 30% hepatectomy, injection of a solution of living P. aeruginosa into the cecum, and food deprivation postoperatively. All 8 of the mice survived surgery.

[4] = test system: occludin, ZO-1, ZO-2, claudin-5, E-cadherin, JAM; experiment: Accumulation of tight and adherens junction proteins in C2 cells (immunoblot of insoluble fraction, confocal microscopy); assay type: cell-based, human
[5] = test system: Enterococcus faecalis; experiment: Growth of other bacteria and fungi; assay type: cell-based
[6] = test system: BSC-1 epithelial cell line; experiment: Growth (mitogenesis) assay on confluent BSC-1 cells, cells counted 4 days later; assay type: cell-based, monkey; conditions: compared with related peptides
Description: Finding that a 42-amino acid peptide representing a central region of the novel antrum mucosal cell protein AMP-18 had mitogenic activity similar in character to that of the intact protein in pig and mouse antrum extracts (Table 1), has facilitated the characterization of the bio-active region of the molecule. […] Growth activity determinations have so far been accomplished with the kidney epithelial cell line as well as several gastric and intestinal lines.
Non-transformed monkey kidney epithelial cell line BSC-1 and other epithelial cell lines were used to assess effects on growth. In general, conditions were chosen for each line such that cells are grown to confluence in plastic dishes in supplemented growth medium with minimal calf (or fetal) serum for growth (Lieske et al., 1997); BSC-1 cells become confluent at 10^6/60 mm dish with 1% calf serum. At the start of the growth assay the medium on the confluent culture was aspirated and replaced with fresh medium with minimal serum to maintain viability (0.01% for BSC-1) cells. AMP-18 preparations were added to the culture medium and 4 days later the cell monolayer was rinsed, detached with trypsin, and the cells were counted using a hemocytometer. Determination of the capacity of AMP-18 to initiate DNA synthesis was measured by the incorporation of [^3H]thymidine (Toback, 1980); to confirm the DNA synthesis assay, autoradiograms of leveled cells were counted (Kartha and Toback, 1985).

[7] = test system: Streptococcus agalactiae; experiment: Growth of other bacteria and fungi; assay type: cell-based
[8] = test system: WI-38 fibroblasts; experiment: Growth of WI-38 fibroblasts (non-GI control); assay type: cell-based, human; conditions: peptide up to 8 μg/ml
Description: To characterize the capacity of gastric and intestinal cells to respond to AMP-18, AGS gastric adenocarcinoma cells, HAE human gastric antrum mucosa primary cultures transformed with SV40 large T antigen, rat diploid small intestinal epithelial cells of the IEC-6 (FIG. 15) and IEC-18 lines, NCI N-87 gastric carcinoma cells, and SK-GT5 gastroesophageal adenocarcinoma cells were studied; human WI-38 fibroblasts and HeLa cells served as non-GI control cell lines. Mitogenesis was assayed by performing cell counts 3 to 4 days after exposing cells to the agent of interest, trypsinizing the culture to prepare single cells, and confirming this while counting them in a hemocytometer.

[9] = test system: HAE cells; experiment: Wound restitution (migration) of scrape-wounded HAE cell monolayers; assay type: cell-based, human
Description: To measure growth (left panel), HAE cells were plated in 60-mm dishes. Peptide 77-97 (8 μg/ml), or EGF (50 ng/ml), or both were added to the medium and the number of cells counted 4 days later. […] Values are means±SE for 3 cultures. To measure migration (right panel), cells were grown in 60-mm dishes to prepare a confluent monolayer. The medium was aspirated and replaced with fresh medium containing 0.01% calf serum (CS). The monolayer was mechanically wounded by scraping with a razor blade. Detached cells were removed by aspirating medium, and rinsing the remaining cells twice with fresh medium containing 0.01% CS. Fresh medium (5 ml) containing CS (0.01%) and insulin (100 U/L) was added to wounded cultures. Either peptide 77-97 (8 μg/ml), EGF (50 ng/ml), or both were added to duplicate cultures. Migration was assessed at 24, 48 and 72 hr after wounding by measuring the distance (in mm) that cells had migrated from the wound edge using a microscope eyepiece reticle (10-mm long; 0.1-mm markings). Migrating cells at 12 randomly chosen sites along a 0.25-mm stretch of the wound edge were measured at 40-fold magnification. Migration at 2 different sites was measured for each of 2 separate wounds made in each culture. Values are the mean distance cells moved into the denuded area from the edge of 4 different wounds in 2 cultures±SE.
Confluent monolayer cultures were mechanically wounded by scraping with a razor blade, and the distance that cells migrated from the wound edge was measured using a microscope eyepiece reticle.

[10] = test system: Staphylococcus aureus; experiment: Growth of other bacteria and fungi; assay type: cell-based
[11] = test system: Helicobacter pylori; experiment: Growth inhibition on a bacterial lawn (filter diffusion); assay type: cell-based; conditions: solution on filter
Description: To determine if AMP peptide inhibits growth of H. pylori, a lawn of bacteria was prepared on a culture dish. A small circular filter was placed in the center of the dish, a solution of a test agent was placed on the filter so it diffused onto the lawn, and its effect on bacterial growth around the filter was measured. AMP peptide 77-97 (SEQ ID NO: 12) (Table 1), a scrambled version of this AMP peptide (negative control) (SEQ ID NO: 19), or the antibiotic clarithromycin (positive control) was added to a filter on different cultures. […] In addition, AMP peptide could serve as a therapeutic agent to treat H. pylori infections in the stomach, and thereby prevent the capacity of this organism to cause gastritis, gastric ulcers, and gastric adenocarcinomas.

Sequence: LDALVKEKKLQGKGPGGPPPK [97–117, peptide 77-97 of the mature protein, same as 97-117 of the human precursor]
- growth of Escherichia coli [1]: did not alter the growth
- growth of Acinetobacter baumanii [2]: did not alter the growth
- survival one day after P. aeruginosa injection into the cecum [3]: alive and well
- occludin immunoreactivity of peptide-treated cells exposed to DSS ([4]; DSS 4%, vehicle-treated declined about 50% at 1 hr, listed as AMP peptide): did not decline; also recorded: not reduced
- perijunctional actin, confocal microscopy ([4]; oxidant (0.3 mM monochloramine) injury): protected
- occludin immunoreactivity at cell junctions, confocal microscopy ([4]; pretreated prior to monochloramine 0.3 mM, vs untreated injured cells): more intense
- growth of Enterococcus faecalis [5]: did not alter the growth
- mitogenic activity (in words) ([6]; listed as peptide 97-107): equal to the 42-mer
- mitogenic activity (in words) ([6]; listed as peptide 97-117): enhanced activity
- growth of Streptococcus agalactiae [7]: did not alter the growth
- growth stimulation of WI-38 fibroblasts [8]: does not stimulate growth
- growth stimulation of WI-38 fibroblasts ([8]; listed as AMP peptide): failure
- migration from the wound edge compared with vehicle ([9]; peptide 8 μg/ml, EGF 50 ng/ml, 24-72 hr): migrated further
- migration, peptide and EGF acting together ([9]; peptide 77-97 8 μg/ml + EGF 50 ng/ml): markedly enhanced migration
- growth of Staphylococcus aureus [10]: did not alter the growth
- growth of H. pylori lawn ([11]; listed as AMP peptide): inhibited growth
- growth of H. pylori lawn ([11]; listed as AMP peptide 77-97): inhibited
